Read-outs that look alike come from different tables or passages of the source.
Legend:
HIV [1] = conditions: cited from earlier work
HIV (LAV strain) = assay: in vitro anti-HIV efficacy (antiviral test on HIV (LAV strain)-infected CEM cells); type: cell-based; conditions: Human immunodeficiency virus 1, CCRF-CEM, read-out: ID50 (the 50% inhibitory dose)
Procedure: Comparative in vitro anti-HIV efficacy^a and
^a The antiviral test was performed on HIV (LAV strain)infected CEM
^c The 50% inhibitory dose.

[2] = cellular toxicity measured in CEM cells; type: cell-based; conditions: human, read-out: TCID50 (the 50% tissue culture inhibitory dose)
Procedure: cellular toxicity^b of AZT and d4T.
^b The cellular toxicity was measured in CEM cells.
^d The 50% tissue culture inhibitory dose.

AIDS = conditions: clinical trials, patients with AIDS; cited from earlier work
HIV [3] = conditions: in several cell lines; cited from earlier work

Row | SMILES | reported activity against HIV (HIV [1]) | further results
1 | Cc1cn([C@H]2C[C@H](F)[C@@H](CO)O2)c(=O)[nH]c1=O [FDDT, 3'-fluoro-3'-deoxythymidine] | active against HIV | 
2 | Nc1ncnc2c1ncn2[C@H]1CC[C@@H](CO)O1 [ddA, 2',3'-dideoxyadenosine] | active against HIV | 
3 | O[C@H]1[C@H](O)[C@@H](O)CN2CC[C@H](O)[C@H]12 [castanospermine] | active against HIV | 
4 | O=C(O)P(=O)(O)O [foscarnet] | active against HIV | 
5 | CC(=O)O[C@H]1C[C@@]2(C)[C@@H](C[C@@H](O)[C@H]3[C@@]4(C)CC[C@@H](O)[C@@H](C)[C@@H]4CC[C@@]32C)/C1=C(\CCC=C(C)C)C(=O)O [fusidic acid] | active against HIV | 
6 | Cc1cn([C@H]2C[C@H](N=[N+]=[N-])[C@@H](CO)O2)c(=O)[nH]c1=O [AZT, 3'-azido-3'-deoxythymidine] |  | IC50 (HIV (LAV strain)): 0.45 µM; CC50 [2]: 54 µM; efficacy in the treatment of AIDS (AIDS): efficacious agent in the treatment of AIDS in clinical trials
7 | Cc1cn([C@H]2C=C[C@@H](CO)O2)c(=O)[nH]c1=O [d4T, 1-(2,3-Dideoxy-β-D-glycero-pent-2-enofuranosyl)thymine] |  | IC50 (HIV (LAV strain); in vitro anti-HIV efficacy, HIV (LAV strain) infected CEM cells): 0.33 µM; CC50 [2]: 39 µM; in vitro activity against HIV (HIV [3]): possesses in vitro activity against HIV in several cell lines
8 | NC(=O)c1ncn([C@@H]2O[C@H](CO)[C@@H](O)[C@H]2O)n1 [ribavarin] | active against HIV | 
9 | Nc1ccn([C@H]2CC[C@@H](CO)O2)c(=O)n1 [ddC, 2',3'-Dideoxycytidine] | active against HIV | 
10 | CC(C)(S)[C@@H](N)C(=O)O [d-penicillamine] | active against HIV | 
11 | Nc1ccn([C@H]2C=C[C@@H](CO)O2)c(=O)n1 [d4C, 2',3'-dideoxy-2',3'-didehydrocytidine] | active against HIV | 
12 | Cc1ccc(C(=O)Nc2ccc(S(=O)(=O)O)c3cc(S(=O)(=O)O)cc(S(=O)(=O)O)c23)cc1NC(=O)c1cccc(NC(=O)Nc2cccc(C(=O)Nc3cc(C(=O)Nc4ccc(S(=O)(=O)O)c5cc(S(=O)(=O)O)cc(S(=O)(=O)O)c45)ccc3C)c2)c1 [suramine] | active against HIV | 

Reference: patent publication US5130421A, “Production of 2',3'-dideoxy-2',3'-didehydronucleosides” (priority 1991, dated 1992)
